The test system of the assay is NK cells. The experiment in a line: Flow cytometry of NK cell surface markers (MFI) in naïve mice. Format: in vivo, C57Bl/6 mice. The settings on record: 12 hr after 100 mpk PO. The text has this: Protein expression is quantified by mean fluorescent intensity (MFI).
12-hours post-dose, mice were sacrificed and blood, spleen, and inguinal lymph node were collected for analysis by flow cytometry.
Transcriptional differences in NK cell markers were confirmed at the protein level by flow cytometry. […] Protein expression was quantified by mean fluorescent intensity (MFI). […] 12-hours post-dose, mice were sacrificed and blood, spleen, and inguinal lymph node (iLN) were collected for analysis by flow cytometry.
(A flow cytometer gives signals particle by particle.)

Molecules are shown by their SMILES. Entries after “also recorded” stand apart in the source; their conditions may differ. Where a name gives a salt, the structure may show the parent alone.

From patent US20160115540A1, “PRODRUGS AND DRUGS” (Biogen MA Inc., priority 2013, published 2016) come the findings set out here.

Regarding `COC(=O)/C=C/C(=O)OC` [DMF, dimethyl fumarate], for the setting “NK cells”, the “Klrb1b (NK1.1) protein expression change, MFI difference compared to MMF 12 hr or vehicle control” value is “differentially expressed; also recorded: Significant”; the “Klrc1 (Nkg2a) protein expression change, MFI difference compared to MMF 12 hr or vehicle control” value is reported as “differentially expressed; also recorded: Significant”; the “Klrd1 (CD94) protein expression change, MFI difference compared to MMF 12 hr or vehicle control” value was “differentially expressed”; the “Klrk1 (NKG2d) protein expression change, MFI difference compared to MMF 12 hr or vehicle control” value is “differentially expressed; also recorded: Significant”. Moreover, the “Ncr1 (NKp46) protein expression change, MFI difference compared to MMF 12 hr or vehicle control” value (NK cells) is given as “Not significant”. Also, where the note is “naïve mice”, the “Effects on NK cells in the spleen” value was “exerts effects on NK cells in the spleen”.
